According to patent publication US9107849B2, “Anti-glycation agent comprising a Garcinia kola extract or fraction” (UNIVERSITE D'ANGERS, priority 2012, dated 2015):

Legend:
calf skin collagen = target: T1, calf skin collagen (Bos taurus, UniProt P02453+P02465); experiment: Anti-AGE activity on calf skin collagen in solution in the presence of ribose (pentosidine-type AGE fluorescence); type: biochemical; settings: for IC50: read-out: Anti-AGE activity measured on collagen (IC50 in mg/mL) (converted)
T1 construct: from tissue; host or cells: calf skin
T1 sequence (P02453 162-1217 limits assumed): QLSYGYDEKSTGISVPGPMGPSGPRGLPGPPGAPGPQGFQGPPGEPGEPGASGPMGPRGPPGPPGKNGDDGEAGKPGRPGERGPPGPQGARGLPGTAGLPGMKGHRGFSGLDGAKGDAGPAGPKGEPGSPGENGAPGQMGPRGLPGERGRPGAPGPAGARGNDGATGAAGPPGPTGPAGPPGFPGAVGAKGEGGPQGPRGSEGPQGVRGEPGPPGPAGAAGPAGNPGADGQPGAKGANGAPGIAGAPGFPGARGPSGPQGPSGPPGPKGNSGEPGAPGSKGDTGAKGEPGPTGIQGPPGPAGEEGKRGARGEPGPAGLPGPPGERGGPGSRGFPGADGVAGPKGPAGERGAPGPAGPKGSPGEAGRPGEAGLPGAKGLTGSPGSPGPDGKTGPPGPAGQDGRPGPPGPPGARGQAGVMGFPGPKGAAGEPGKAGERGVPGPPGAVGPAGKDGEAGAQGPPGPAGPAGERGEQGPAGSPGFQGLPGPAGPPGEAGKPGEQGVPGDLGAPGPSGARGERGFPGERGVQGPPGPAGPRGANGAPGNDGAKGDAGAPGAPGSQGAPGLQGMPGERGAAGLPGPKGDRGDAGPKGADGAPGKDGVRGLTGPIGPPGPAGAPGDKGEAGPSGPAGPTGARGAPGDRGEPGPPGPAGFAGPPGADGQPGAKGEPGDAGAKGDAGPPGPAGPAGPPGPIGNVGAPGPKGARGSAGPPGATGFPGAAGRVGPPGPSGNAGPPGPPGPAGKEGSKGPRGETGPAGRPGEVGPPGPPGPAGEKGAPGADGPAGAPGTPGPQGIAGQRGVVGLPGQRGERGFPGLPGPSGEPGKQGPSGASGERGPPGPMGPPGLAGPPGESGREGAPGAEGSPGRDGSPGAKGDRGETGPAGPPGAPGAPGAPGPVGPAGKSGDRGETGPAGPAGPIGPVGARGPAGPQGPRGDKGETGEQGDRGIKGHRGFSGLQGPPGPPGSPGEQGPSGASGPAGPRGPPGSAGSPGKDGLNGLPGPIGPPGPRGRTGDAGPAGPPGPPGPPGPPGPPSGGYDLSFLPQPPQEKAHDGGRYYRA
T1 sequence (P02465 80-1117 limits assumed): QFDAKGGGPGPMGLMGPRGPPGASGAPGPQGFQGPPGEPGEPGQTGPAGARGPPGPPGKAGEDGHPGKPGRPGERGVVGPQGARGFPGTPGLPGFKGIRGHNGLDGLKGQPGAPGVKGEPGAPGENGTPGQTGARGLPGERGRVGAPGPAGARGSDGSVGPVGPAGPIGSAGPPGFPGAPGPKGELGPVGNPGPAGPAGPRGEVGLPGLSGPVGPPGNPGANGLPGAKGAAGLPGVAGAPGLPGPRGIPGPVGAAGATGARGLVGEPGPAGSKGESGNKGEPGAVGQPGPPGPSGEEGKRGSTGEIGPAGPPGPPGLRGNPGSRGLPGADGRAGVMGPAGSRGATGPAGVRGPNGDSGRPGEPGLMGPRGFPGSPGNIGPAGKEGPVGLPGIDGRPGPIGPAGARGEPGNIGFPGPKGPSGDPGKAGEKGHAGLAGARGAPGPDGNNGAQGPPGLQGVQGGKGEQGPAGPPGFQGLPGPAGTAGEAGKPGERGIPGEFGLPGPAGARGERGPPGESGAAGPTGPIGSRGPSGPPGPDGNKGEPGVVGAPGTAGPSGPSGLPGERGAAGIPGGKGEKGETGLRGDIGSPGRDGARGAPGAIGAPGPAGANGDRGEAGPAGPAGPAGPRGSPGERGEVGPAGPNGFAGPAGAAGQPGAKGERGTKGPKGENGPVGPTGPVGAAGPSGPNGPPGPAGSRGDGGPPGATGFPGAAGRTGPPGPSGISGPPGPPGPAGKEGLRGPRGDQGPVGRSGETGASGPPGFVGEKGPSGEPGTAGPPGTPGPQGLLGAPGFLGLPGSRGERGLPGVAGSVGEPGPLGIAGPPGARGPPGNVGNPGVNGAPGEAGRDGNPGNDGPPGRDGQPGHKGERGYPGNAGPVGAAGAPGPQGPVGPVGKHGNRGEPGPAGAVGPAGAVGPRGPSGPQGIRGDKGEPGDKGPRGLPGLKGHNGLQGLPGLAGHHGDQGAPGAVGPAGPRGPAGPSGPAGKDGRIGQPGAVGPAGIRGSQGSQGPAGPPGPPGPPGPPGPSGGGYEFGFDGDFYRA
Description: Calf skin collagen (0.1 mg/mL) and ribose (0.5 M) are incubated in phosphate buffer 50 mM pH 7.4 at 37° C. in a 96-well Greiner bio-one plate with a black bottom (100 μL). The same experiment is performed in the presence of an AGE formation inhibitor, such as aminoguanidine (1 mg/mL, DMSO 10%). The following control solutions are also prepared: collagen (0.1 mg/mL) with or without an AGE formation inhibitor (1 mg/mL, DMSO 10%) is incubated in phosphate buffer 50 mM pH 7.4 at 37° C.

albumin = albumin (Bos taurus, UniProt P02769); experiment: Anti-AGE activity measured on albumin (pentosidine-type AGEs formed); type: biochemical; settings: quantity of pentosidine-type AGEs formed
Chain of albumin (P02769 25-607): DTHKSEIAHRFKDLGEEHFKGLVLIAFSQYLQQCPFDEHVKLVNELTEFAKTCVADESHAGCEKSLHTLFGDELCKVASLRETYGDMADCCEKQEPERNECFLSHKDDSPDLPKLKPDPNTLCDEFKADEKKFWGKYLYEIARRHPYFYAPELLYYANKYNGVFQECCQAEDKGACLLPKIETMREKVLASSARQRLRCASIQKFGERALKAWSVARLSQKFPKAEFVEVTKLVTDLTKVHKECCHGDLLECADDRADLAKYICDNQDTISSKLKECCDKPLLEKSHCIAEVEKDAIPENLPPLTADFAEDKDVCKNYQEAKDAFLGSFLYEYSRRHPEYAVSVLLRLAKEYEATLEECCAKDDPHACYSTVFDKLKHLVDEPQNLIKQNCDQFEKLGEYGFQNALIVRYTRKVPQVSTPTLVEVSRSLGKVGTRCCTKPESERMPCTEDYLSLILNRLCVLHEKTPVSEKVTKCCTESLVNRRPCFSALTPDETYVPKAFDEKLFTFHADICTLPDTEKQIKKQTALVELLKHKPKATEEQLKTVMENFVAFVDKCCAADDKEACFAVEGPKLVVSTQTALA

[1] = DPPH antioxidant potential; settings: for DPPH (μmol TE/g): TE: Trolox Equivalent
[2] = ORAC antioxidant potential; settings: for ORAC (μmol TE/g): TE: Trolox Equivalent
[3] = ribose, quantity of pentosidine-type AGEs formed, NA: Inactive

IC50 (calf skin collagen; [3]) | Compound | DPPH (μmol TE/g) [1] | ORAC (μmol TE/g) [2] | further results
13500 µM | N=C(N)NN [Aminoguanidine] | 0 μmol TE/g | 0 μmol TE/g | IC50 (albumin; read-out: Anti-AGE activity measured on albumin (IC50 in mg/mL) (converted)): 2020 µM; antioxidant activity, DPPH test (in words) [1]: does not have an antioxidant activity; antioxidant activity, ORAC test (in words) [2]: does not have an antioxidant activity
 | Oc1cc(O)c2c(c1)O[C@H](c1ccc(O)c(O)c1)[C@H](O)[C@H]2c1c(O)cc(O)c2c1O[C@H](c1ccc(O)c(O)c1)[C@H](O)C2 [Procyanidin B2] | 3945 μmol TE/g | 23720 μmol TE/g | Anti-AGE activity measured on albumin (IC50 in mg/mL) (albumin): 0.1 mg/mL
1160 µM | O=c1c(O)c(-c2ccc(O)c(O)c2)oc2cc(O)cc(O)c12 [Quercetin] | 6722 μmol TE/g |  | 
 | C/C(=C\CC/C(C)=C/CC[C@]1(C)CCc2cc(O)cc(C)c2O1)CC/C=C(\C)C(=O)O [garcinoic acid] |  |  | anti-glycation activity on calf skin collagen (in words) (calf skin collagen): has a real anti-glycation activity, but nevertheless inferior to that of kolaviron
 | GB2 |  |  | Anti-AGE activity measured on collagen (IC50 in mg/mL) (calf skin collagen; [3]): 0.03 mg/mL
